Laboratory results published in patent US12568972B2, “Pyridazinol compounds and derivatives, preparation methods, herbicidal compositions and applications thereof” (Qingdao Kingagroot Chemical Compound Co., Ltd., priority 2018, dated 2026).

Experiments:
Experiment in all cases: Post-emergence test, weed control effect
Type in all cases: in vivo
Settings in all cases: after 3 weeks
Amaranthus retroflexus = tested on: Amaranthus retroflexus
Summary of the method: (§1)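 Seeds are sown in soil pots and raised in the greenhouse until the 2-3 leaf stage. Plants are then sprayed with compound dissolved in acetone with Tween-80, diluted in water and supplemented with 80% vegetable oil methyl ester synergist at 1500 g/ha, and fresh weight inhibition is rated 0-10 three weeks later.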

Veronica polita = tested on: Veronica polita
Summary of the method: as §1

Rorippa indica = tested on: Rorippa indica
Summary of the method: as §1

Chenopodiaceae = tested on: Chenopodiaceae
Summary of the method: as §1

Oc1cc(C(F)(F)F)nnc1-c1ccc2cc(Cl)ccc2c1 [Compound 371]
10: weed control effect (activity level), Amaranthus retroflexus (Amaranthus retroflexus; dose 2000 g/ha) | weed control effect (activity level), Veronica polita (Veronica polita; dose 2000 g/ha) | weed control effect (activity level), Rorippa indica (Rorippa indica; dose 2000 g/ha) | weed control effect (activity level), Chenopodiaceae (Chenopodiaceae; dose 2000 g/ha)

Oc1cc(C(F)(F)F)nnc1-c1cccc2ccccc12 [Compound 380]
10: weed control effect (activity level), Amaranthus retroflexus (Amaranthus retroflexus; dose 2000 g/ha) | weed control effect (activity level), Veronica polita (Veronica polita; dose 2000 g/ha) | weed control effect (activity level), Rorippa indica (Rorippa indica; dose 2000 g/ha) | weed control effect (activity level), Chenopodiaceae (Chenopodiaceae; dose 2000 g/ha)

Cc1ccc(-c2nnc(C(F)(F)F)cc2O)o1 [Compound 414]
10: weed control effect (activity level), Amaranthus retroflexus (Amaranthus retroflexus; Dose 3000 g/ha) | weed control effect (activity level), Veronica polita (Veronica polita; Dose 3000 g/ha) | weed control effect (activity level), Rorippa indica (Rorippa indica; Dose 3000 g/ha) | weed control effect (activity level), Chenopodiaceae (Chenopodiaceae; Dose 3000 g/ha)

Oc1cc(C(F)(F)F)nnc1-c1cc(C(F)(F)F)co1 [Compound 418]
10: weed control effect (activity level), Amaranthus retroflexus (Amaranthus retroflexus; Dose 3000 g/ha) | weed control effect (activity level), Veronica polita (Veronica polita; Dose 3000 g/ha) | weed control effect (activity level), Rorippa indica (Rorippa indica; Dose 3000 g/ha) | weed control effect (activity level), Chenopodiaceae (Chenopodiaceae; Dose 3000 g/ha)

Cc1cc(C)c(-c2nnc(C(F)(F)F)cc2O)o1 [Compound 439]
10: weed control effect (activity level), Amaranthus retroflexus (Amaranthus retroflexus; Dose 3000 g/ha) | weed control effect (activity level), Veronica polita (Veronica polita; Dose 3000 g/ha) | weed control effect (activity level), Rorippa indica (Rorippa indica; Dose 3000 g/ha) | weed control effect (activity level), Chenopodiaceae (Chenopodiaceae; Dose 3000 g/ha)

Cc1cc(-c2nnc(C(F)(F)F)cc2O)nn1C [Compound 540]
10: weed control effect (activity level), Amaranthus retroflexus (Amaranthus retroflexus; Dose 3000 g/ha) | weed control effect (activity level), Veronica polita (Veronica polita; Dose 3000 g/ha) | weed control effect (activity level), Rorippa indica (Rorippa indica; Dose 3000 g/ha) | weed control effect (activity level), Chenopodiaceae (Chenopodiaceae; Dose 3000 g/ha)

Cc1n[nH]c(C)c1-c1nnc(C(F)(F)F)cc1O [Compound 543]
10: weed control effect (activity level), Amaranthus retroflexus (Amaranthus retroflexus; Dose 3000 g/ha) | weed control effect (activity level), Veronica polita (Veronica polita; Dose 3000 g/ha) | weed control effect (activity level), Rorippa indica (Rorippa indica; Dose 3000 g/ha) | weed control effect (activity level), Chenopodiaceae (Chenopodiaceae; Dose 3000 g/ha)

Cc1[nH]nc(-c2nnc(C(F)(F)F)cc2O)c1C [Compound 544]
10: weed control effect (activity level), Amaranthus retroflexus (Amaranthus retroflexus; Dose 3000 g/ha) | weed control effect (activity level), Veronica polita (Veronica polita; Dose 3000 g/ha) | weed control effect (activity level), Rorippa indica (Rorippa indica; Dose 3000 g/ha) | weed control effect (activity level), Chenopodiaceae (Chenopodiaceae; Dose 3000 g/ha)

CCCn1cc(-c2nnc(C(F)(F)F)cc2O)cn1 [Compound 546]
10: weed control effect (activity level), Amaranthus retroflexus (Amaranthus retroflexus; Dose 3000 g/ha) | weed control effect (activity level), Veronica polita (Veronica polita; Dose 3000 g/ha) | weed control effect (activity level), Rorippa indica (Rorippa indica; Dose 3000 g/ha) | weed control effect (activity level), Chenopodiaceae (Chenopodiaceae; Dose 3000 g/ha)

Oc1cc(C(F)(F)F)nnc1-c1cn2ncccc2n1 [Compound 570]
10: weed control effect (activity level), Amaranthus retroflexus (Amaranthus retroflexus; Dose 3000 g/ha) | weed control effect (activity level), Veronica polita (Veronica polita; Dose 3000 g/ha) | weed control effect (activity level), Rorippa indica (Rorippa indica; Dose 3000 g/ha) | weed control effect (activity level), Chenopodiaceae (Chenopodiaceae; Dose 3000 g/ha)

Oc1cc(C(F)(F)F)nnc1-c1ccc2cc[nH]c2c1 [Compound 588]
10: weed control effect (activity level), Amaranthus retroflexus (Amaranthus retroflexus; Dose 3000 g/ha) | weed control effect (activity level), Veronica polita (Veronica polita; Dose 3000 g/ha) | weed control effect (activity level), Rorippa indica (Rorippa indica; Dose 3000 g/ha) | weed control effect (activity level), Chenopodiaceae (Chenopodiaceae; Dose 3000 g/ha)

Oc1cc(C(F)(F)F)nnc1-c1cccc2cc[nH]c12 [Compound 589]
10: weed control effect (activity level), Amaranthus retroflexus (Amaranthus retroflexus; Dose 3000 g/ha) | weed control effect (activity level), Veronica polita (Veronica polita; Dose 3000 g/ha) | weed control effect (activity level), Rorippa indica (Rorippa indica; Dose 3000 g/ha) | weed control effect (activity level), Chenopodiaceae (Chenopodiaceae; Dose 3000 g/ha)

Oc1cc(C(F)(F)F)nnc1-c1cc2ccccc2s1 [Compound 594]
10: weed control effect (activity level), Amaranthus retroflexus (Amaranthus retroflexus; Dose 3000 g/ha) | weed control effect (activity level), Veronica polita (Veronica polita; Dose 3000 g/ha) | weed control effect (activity level), Rorippa indica (Rorippa indica; Dose 3000 g/ha) | weed control effect (activity level), Chenopodiaceae (Chenopodiaceae; Dose 3000 g/ha)

Oc1cc(C(F)(F)F)nnc1-c1ccc2occc2c1 [Compound 595]
10: weed control effect (activity level), Amaranthus retroflexus (Amaranthus retroflexus; Dose 3000 g/ha) | weed control effect (activity level), Veronica polita (Veronica polita; Dose 3000 g/ha) | weed control effect (activity level), Rorippa indica (Rorippa indica; Dose 3000 g/ha) | weed control effect (activity level), Chenopodiaceae (Chenopodiaceae; Dose 3000 g/ha)

Cc1nc2cc(-c3nnc(C(F)(F)F)cc3O)ccc2o1 [Compound 597]
10: weed control effect (activity level), Amaranthus retroflexus (Amaranthus retroflexus; Dose 3000 g/ha) | weed control effect (activity level), Veronica polita (Veronica polita; Dose 3000 g/ha) | weed control effect (activity level), Rorippa indica (Rorippa indica; Dose 3000 g/ha) | weed control effect (activity level), Chenopodiaceae (Chenopodiaceae; Dose 3000 g/ha)

Oc1cc(C(F)(F)F)nnc1-c1cc2ccccc2o1 [Compound 613]
10: weed control effect (activity level), Amaranthus retroflexus (Amaranthus retroflexus; Dose 3000 g/ha) | weed control effect (activity level), Veronica polita (Veronica polita; Dose 3000 g/ha) | weed control effect (activity level), Rorippa indica (Rorippa indica; Dose 3000 g/ha) | weed control effect (activity level), Chenopodiaceae (Chenopodiaceae; Dose 3000 g/ha)

Oc1cc(C(F)(F)F)nnc1-c1ccc2cnccc2c1 [Compound 634]
10: weed control effect (activity level), Amaranthus retroflexus (Amaranthus retroflexus; Dose 3000 g/ha) | weed control effect (activity level), Veronica polita (Veronica polita; Dose 3000 g/ha) | weed control effect (activity level), Rorippa indica (Rorippa indica; Dose 3000 g/ha) | weed control effect (activity level), Chenopodiaceae (Chenopodiaceae; Dose 3000 g/ha)

Oc1cc(C(F)(F)F)nnc1-c1cccc2cnccc12 [Compound 636]
10: weed control effect (activity level), Amaranthus retroflexus (Amaranthus retroflexus; Dose 3000 g/ha) | weed control effect (activity level), Veronica polita (Veronica polita; Dose 3000 g/ha) | weed control effect (activity level), Rorippa indica (Rorippa indica; Dose 3000 g/ha) | weed control effect (activity level), Chenopodiaceae (Chenopodiaceae; Dose 3000 g/ha)

Oc1cc(C(F)(F)F)nnc1-c1cncc2ccccc12 [Compound 637]
10: weed control effect (activity level), Amaranthus retroflexus (Amaranthus retroflexus; Dose 3000 g/ha) | weed control effect (activity level), Veronica polita (Veronica polita; Dose 3000 g/ha) | weed control effect (activity level), Rorippa indica (Rorippa indica; Dose 3000 g/ha) | weed control effect (activity level), Chenopodiaceae (Chenopodiaceae; Dose 3000 g/ha)

Oc1cc(C(F)(F)F)nnc1-c1ccc2ncccc2c1 [Compound 714]
10: weed control effect (activity level), Amaranthus retroflexus (Amaranthus retroflexus; Dose 3000 g/ha) | weed control effect (activity level), Veronica polita (Veronica polita; Dose 3000 g/ha) | weed control effect (activity level), Rorippa indica (Rorippa indica; Dose 3000 g/ha) | weed control effect (activity level), Chenopodiaceae (Chenopodiaceae; Dose 3000 g/ha)

Oc1cc(C(F)(F)F)nnc1-c1ccc2cccnc2c1 [Compound 723]
10: weed control effect (activity level), Amaranthus retroflexus (Amaranthus retroflexus; Dose 3000 g/ha) | weed control effect (activity level), Veronica polita (Veronica polita; Dose 3000 g/ha) | weed control effect (activity level), Rorippa indica (Rorippa indica; Dose 3000 g/ha) | weed control effect (activity level), Chenopodiaceae (Chenopodiaceae; Dose 3000 g/ha)

Oc1cc(C(F)(F)F)nnc1-c1ccc(F)cc1F [Compound 732]
10: weed control effect (activity level), Amaranthus retroflexus (Amaranthus retroflexus; dose 1000 g/ha) | weed control effect (activity level), Veronica polita (Veronica polita; dose 1000 g/ha) | weed control effect (activity level), Rorippa indica (Rorippa indica; dose 1000 g/ha) | weed control effect (activity level), Chenopodiaceae (Chenopodiaceae; dose 1000 g/ha)

Oc1cc(C(F)(F)F)nnc1-c1cccc2cccnc12 [Compound 734]
10: weed control effect (activity level), Amaranthus retroflexus (Amaranthus retroflexus; dose 1000 g/ha) | weed control effect (activity level), Veronica polita (Veronica polita; dose 1000 g/ha) | weed control effect (activity level), Rorippa indica (Rorippa indica; dose 1000 g/ha) | weed control effect (activity level), Chenopodiaceae (Chenopodiaceae; dose 1000 g/ha)

Cc1cccc(C2CC2)c1-c1nnc(C(F)(F)F)cc1O [Compound 735]
10: weed control effect (activity level), Amaranthus retroflexus (Amaranthus retroflexus; dose 1000 g/ha) | weed control effect (activity level), Veronica polita (Veronica polita; dose 1000 g/ha) | weed control effect (activity level), Rorippa indica (Rorippa indica; dose 1000 g/ha) | weed control effect (activity level), Chenopodiaceae (Chenopodiaceae; dose 1000 g/ha)

Oc1cc(C(F)(F)F)nnc1-c1cccc(F)c1 [Compound 736]
10: weed control effect (activity level), Amaranthus retroflexus (Amaranthus retroflexus; dose 1000 g/ha) | weed control effect (activity level), Veronica polita (Veronica polita; dose 1000 g/ha) | weed control effect (activity level), Rorippa indica (Rorippa indica; dose 1000 g/ha) | weed control effect (activity level), Chenopodiaceae (Chenopodiaceae; dose 1000 g/ha)

Oc1cc(C(F)(F)F)nnc1-c1ccccc1C(F)(F)F [Compound 737]
10: weed control effect (activity level), Amaranthus retroflexus (Amaranthus retroflexus; Dose 3000 g/ha) | weed control effect (activity level), Veronica polita (Veronica polita; Dose 3000 g/ha) | weed control effect (activity level), Rorippa indica (Rorippa indica; Dose 3000 g/ha) | weed control effect (activity level), Chenopodiaceae (Chenopodiaceae; Dose 3000 g/ha)

COc1c(Cl)ccc(-c2nnc(C(F)(F)F)cc2O)c1F [Compound 741]
10: weed control effect (activity level), Amaranthus retroflexus (Amaranthus retroflexus; Dose 3000 g/ha) | weed control effect (activity level), Veronica polita (Veronica polita; Dose 3000 g/ha) | weed control effect (activity level), Rorippa indica (Rorippa indica; Dose 3000 g/ha) | weed control effect (activity level), Chenopodiaceae (Chenopodiaceae; Dose 3000 g/ha)

N#Cc1cccc(-c2nnc(C(F)(F)F)cc2O)c1 [Compound 742]
10: weed control effect (activity level), Amaranthus retroflexus (Amaranthus retroflexus; Dose 3000 g/ha) | weed control effect (activity level), Veronica polita (Veronica polita; Dose 3000 g/ha) | weed control effect (activity level), Rorippa indica (Rorippa indica; Dose 3000 g/ha) | weed control effect (activity level), Chenopodiaceae (Chenopodiaceae; Dose 3000 g/ha)

Oc1cc(C(F)(F)F)nnc1-c1cc2ccccc2cn1 [Compound 743]
10: weed control effect (activity level), Amaranthus retroflexus (Amaranthus retroflexus; Dose 3000 g/ha) | weed control effect (activity level), Veronica polita (Veronica polita; Dose 3000 g/ha) | weed control effect (activity level), Rorippa indica (Rorippa indica; Dose 3000 g/ha) | weed control effect (activity level), Chenopodiaceae (Chenopodiaceae; Dose 3000 g/ha)

Oc1cc(C(F)(F)F)nnc1-c1ccc(Cl)c(F)c1 [Compound 745]
10: weed control effect (activity level), Amaranthus retroflexus (Amaranthus retroflexus; Dose 3000 g/ha) | weed control effect (activity level), Veronica polita (Veronica polita; Dose 3000 g/ha) | weed control effect (activity level), Rorippa indica (Rorippa indica; Dose 3000 g/ha) | weed control effect (activity level), Chenopodiaceae (Chenopodiaceae; Dose 3000 g/ha)

Oc1cc(C(F)(F)F)nnc1-c1ccc(C(F)(F)F)cc1 [Compound 746]
10: weed control effect (activity level), Amaranthus retroflexus (Amaranthus retroflexus; Dose 3000 g/ha) | weed control effect (activity level), Veronica polita (Veronica polita; Dose 3000 g/ha) | weed control effect (activity level), Rorippa indica (Rorippa indica; Dose 3000 g/ha) | weed control effect (activity level), Chenopodiaceae (Chenopodiaceae; Dose 3000 g/ha)
